Ends that are not written are not given here.

As a reminder, the IC50 is the concentration that gives 50% inhibition. A word on the Ki: it is the equilibrium dissociation constant of an inhibitor or competing ligand from its target. A lower Ki goes with a stronger hold on the target.

Assay [1] has as its system acute attacks of migraine. The note with it: clinical trials; cited from earlier work.
Assay [2] relates to facial blood flow. The note with it: marmoset, electrical stimulation of the trigeminal ganglion; cited from earlier work.
For assay [3], the system named is middle meningeal artery. The note with it: rats, electrical stimulation of the dura mater, prior administration; cited from earlier work.
Assay [4] relates to facial blood flow. Particulars: rat, trigeminal ganglion stimulation; cited from earlier work.
Assay [5] has as its target endogenous CGRP receptor (Homo sapiens, UniProt O60894+Q16602). As to the kind of experiment: CGRP functional antagonism using SK-N-MC-BLA (4C10), β-lactamase transcriptional reporter assay. The assay is classed as cell-based. The note with it: SK-N-MC (4C10) cells, inhibition of β-lactamase expression in the presence of 200 pM CGRP.
The target of assay [6] is T1, CGRP receptor (SK-N-MC membrane) (Homo sapiens, UniProt O60894+Q16602).
T1 construct: Purified SK-N-MC membrane was purchased from Perkin Elmer; purchased Perkin Elmer; host or cells: SK-N-MC membrane
As to the kind of experiment: I125-CGRP binding displacement assay on purified SK-N-MC membrane. In outline:
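Human SK-N-MC membranes incubated with compounds and I125-CGRP for 2 h at room temperature in 25 mM Tris-HCl pH 7.4, 5 mM MgCl2, 0.1% BSA, 0.05% Tween, then filtered and counted. Nonspecific binding defined with 1 uM unlabelled CGRP; percent displacement fitted to curves.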

T1 sequence (Q16602 23-461): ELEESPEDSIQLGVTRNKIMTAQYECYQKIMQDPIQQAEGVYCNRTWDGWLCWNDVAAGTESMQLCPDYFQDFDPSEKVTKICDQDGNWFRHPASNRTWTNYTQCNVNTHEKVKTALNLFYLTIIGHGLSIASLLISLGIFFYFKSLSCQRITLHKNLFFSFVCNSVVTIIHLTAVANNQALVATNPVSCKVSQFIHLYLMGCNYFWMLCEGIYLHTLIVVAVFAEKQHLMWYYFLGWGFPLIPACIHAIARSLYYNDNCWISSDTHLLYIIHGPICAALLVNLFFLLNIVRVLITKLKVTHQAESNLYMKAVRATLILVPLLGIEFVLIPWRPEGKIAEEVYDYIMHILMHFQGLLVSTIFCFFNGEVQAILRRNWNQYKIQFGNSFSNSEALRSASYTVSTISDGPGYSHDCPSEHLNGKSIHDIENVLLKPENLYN
T1 sequence (O60894 27-148): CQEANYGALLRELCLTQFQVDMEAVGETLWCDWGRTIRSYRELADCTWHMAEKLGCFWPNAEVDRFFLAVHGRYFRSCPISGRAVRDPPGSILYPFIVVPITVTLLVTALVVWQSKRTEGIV
Chain of endogenous CGRP receptor (Q16602 23-461): as the sequence (Q16602 23-461) above
Chain of endogenous CGRP receptor (O60894 27-148): as the sequence (O60894 27-148) above

For the compound `NCCCC[C@H](NC(=O)[C@@H](Cc1cc(Br)c(O)c(Br)c1)NC(=O)N1CCC(N2Cc3ccccc3NC2=O)CC1)C(=O)N1CCN(c2ccncc2)CC1` [BIBN4096BS], in assay [1], the “efficacy in acute attacks of migraine” value is reported as “effective in treating acute attacks of migraine”. For the same compound, the “effect on increase in facial blood flow” value in assay [2] was “blocked”.

“CGRP (8-37): a peptide CGRP antagonist (VTHRLAGLLSRSGGVVKNNFVPTNVGSKAF; ends and bridges not checked; UniProt P06881 90-119, looked up, fragment)”: the “effect on increase of middle meningeal artery diameter” value in assay [3] was “blocked”. Besides, the “effect on increased facial blood flow” value in assay [4] is recorded as “inhibited”.

On to `CN(C)c1ccccc1C1SC(CC(=O)N2CCC(N3CCc4ccccc4NC3=O)CC2)C(=O)N1CCC(C)(C)C` (centres unmarked) [Compound 263], for which the IC50 in assay [5] is less than 1000 nM. Moreover, the Ki in assay [6] is less than 1000 nM.

For the compound `COc1ccc(C2SC(CC(=O)N3CCC(n4cc(-c5ccccc5)[nH]c4=O)CC3)C(=O)N2CCC(C)C)cc1` (centres unmarked) [Compound 286], in assay [5], the IC50 fell in the range of 1000 to 5000 nM. This compound returned a Ki in assay [6] of more than 5000 nM.

Take `CC(C)(C)CCN1C(=O)[C@H](CC(=O)N2CCC(N3CCc4ccccc4NC3=O)CC2)S[C@H]1c1ccccc1C1CCNCC1` [Compound 502, 4,5-Dihydro-3-(1-(2-((2S,5S)-3-(3,3-dimethylbutyl)-4-oxo-2-(2-(piperidin-4-yl)phenyl)thiazolidin-5-yl)acetyl)piperidin-4-yl)-1H-benzo[d][1,3]diazepin-2(3H)-one]: the 50% inhibitory concentration (IC50) in assay [5] was less than 1000 nM. Besides, in assay [6], the Ki is less than 1000 nM.

With `CC(C)OCCN1C(=O)[C@H](CC(=O)N2CCC(n3c(=O)[nH]c4ncccc43)CC2)SC1c1cccc(F)c1N1CCN(C(C)(C)C)CC1` (some centres unmarked) [Compound 531], the IC50 in assay [5] is less than 1000 nM. Moreover, the Ki in assay [6] was less than 1000 nM.

Consider `CC(C)(C)CCN1C(=O)C(CC(=O)N2CCC(n3c(=O)[nH]c4ccccc43)CC2)S[C@H]1c1ccccc1N1CCC(O)CC1` (some centres unmarked) [Compound 301], for which the 50% inhibitory concentration (IC50) in assay [5] is less than 1000 nM. Besides, the Ki in assay [6] is less than 1000 nM.

For `CC(C)(C)CCN1C(=O)[C@H](CC(=O)N2CCC(N3CCc4ccccc4NC3=O)CC2)SC1c1cccc(F)c1N1CCN(C2CCC2)CC1` (some centres unmarked) [Compound 543], the IC50 in assay [5] is less than 1000 nM. This compound displayed a Ki in assay [6] of less than 1000 nM.

`CC(C)(C)CCN1C(=O)C(CC(=O)N2CCC(N3CCc4ccccc4NC3=O)CC2)SC1c1ccccc1-n1ccnc1` (centres unmarked) [Compound 28]: in assay [5], the IC50 is less than 1000 nM. This compound also registered a Ki in assay [6] of less than 1000 nM.

Take `CC(C)(C)N1CCN(c2c(F)cccc2C2S[C@@H](CC(=O)N3CCC(n4c(=O)[nH]c5ncccc54)CC3)C(=O)N2CC2CCOCC2)CC1` (some centres unmarked) [Compound 525]: in assay [5], the IC50 is less than 1000 nM. For the same compound, the Ki in assay [6] was less than 1000 nM.

Take `CC(C)N1CCN(c2c(F)cccc2C2SC(CC(=O)N3CCC(n4c(=O)[nH]c5ncccc54)CC3)C(=O)N2CCC(C)(C)C)CC1` (centres unmarked) [Compound 341]: in assay [5], the IC50 was less than 1000 nM. The compound further yielded an inhibition constant (Ki) in assay [6] of less than 1000 nM.

For the compound `C[C@@H]1CN(c2c(F)cccc2[C@H]2S[C@@H](CC(=O)N3CCC(N4CCc5ccccc5NC4=O)CC3)C(=O)N2CCC(C)(C)C)C[C@H](C)N1` [Compound 474], in assay [5], the IC50 is 1000 to 5000 nM. Besides, the Ki in assay [6] is less than 1000 nM.

Regarding `CC(C)CCN1C(=O)C(CC(=O)N2CCC(n3cc4ccccc4nc3=O)CC2)SC1c1ccccc1` (centres unmarked) [Compound 259], the IC50 in assay [5] was less than 1000 nM. In addition, the Ki in assay [6] was less than 1000 nM.

Regarding `CN(c1ccccc1C1SC(CC(=O)N2CCC(n3c(=O)[nH]c4ncccc43)CC2)C(=O)N1CCC(C)(C)C)[C@@H]1CCN(Cc2ccccc2)C1` (some centres unmarked) [Compound 402], the IC50 in assay [5] was less than 1000 nM. In assay [6], this compound had a Ki of less than 1000 nM.

With `O=C(CC1SC(c2ccccc2)N(CCc2ccncc2)C1=O)N1CCC(n2cc(-c3ccccc3)[nH]c2=O)CC1` (centres unmarked) [Compound 53], in assay [5], the IC50 is more than 5000 nM. Also, the Ki in assay [6] is more than 5000 nM.

On to `Cc1ccccc1C1SC(CC(=O)N2CCC(N3CCc4ccccc4NC3=O)CC2)C(=O)N1CCC(C)C` (centres unmarked) [Compound 171], for which the IC50 in assay [5] was less than 1000 nM. In addition, the Ki in assay [6] is less than 1000 nM.

Take `Cc1cc(C2SC(CC(=O)N3CCC(N4Cc5ccccc5NC4=O)CC3)C(=O)N2CCC(C)C)cc2cn[nH]c12` (centres unmarked) [Compound 282]: the IC50 in assay [5] was less than 1000 nM. The compound also gave a Ki in assay [6] of less than 1000 nM.

Take `COc1cccc(C2SC(CC(=O)N3CCC(n4cc(-c5ccccc5)[nH]c4=O)CC3)C(=O)N2CCC(C)C)c1` (centres unmarked) [Compound 61]: in assay [5], the 50% inhibitory concentration (IC50) was 1000 to 5000 nM. The compound further displayed a Ki in assay [6] of more than 5000 nM.

For the compound `CC(C)(C)CCN1C(=O)C(CC(=O)N2CCC(N3Cc4ccccc4NC3=O)CC2)SC1c1ccccc1N1CCOCC1` (centres unmarked) [Compound 160], in assay [5], the IC50 was less than 1000 nM. Further, the inhibition constant Ki in assay [6] is less than 1000 nM.

Turning to `CN1CCN(c2c(F)cccc2C2SC(CC(=O)N3CCC(N4CCc5ccccc5NC4=O)CC3)C(=O)N2CCC(C)(C)C)CC1` (centres unmarked) [Compound 324], in assay [5], the IC50 was less than 1000 nM. The inhibition constant Ki in assay [6] is less than 1000 nM.

As for `CC(C)CN1C(=O)[C@H](CC(=O)N2CCC(n3c(=O)[nH]c4ncccc43)CC2)S[C@H]1c1cccc(F)c1N1CCN(C(C)(C)C)CC1` [Compound 496], in assay [5], the IC50 was less than 1000 nM. Moreover, the Ki in assay [6] is less than 1000 nM.

Take `CN1CCN(c2ccc(F)cc2C2SC(CC(=O)N3CCC(n4c(=O)[nH]c5ncccc54)CC3)C(=O)N2CCC(C)(C)C)CC1` (centres unmarked) [Compound 353]: the IC50 in assay [5] was less than 1000 nM. For the same compound, in assay [6], the Ki is less than 1000 nM.

As to `COCCN1C(=O)[C@H](CC(=O)N2CCC(N3CCc4ccccc4NC3=O)CC2)SC1c1cccc(F)c1N1CCN(C(C)(C)C)CC1` (some centres unmarked) [Compound 534], in assay [5], the IC50 is less than 1000 nM. This compound also yielded an inhibition constant (Ki) in assay [6] of less than 1000 nM.

On to `CC(C)(C)CCN1C(=O)[C@H](CC(=O)N2CCC(n3c(=O)[nH]c4ncccc43)CC2)S[C@H]1c1cccc(F)c1C1CCNCC1` [Compound 555], for which the IC50 in assay [5] was 1000 to 5000 nM. Moreover, in assay [6], the Ki was less than 1000 nM.

Regarding `O=C(CC1SC(Cc2ccccc2)N(CC(F)(F)F)C1=O)N1CCC(N2Cc3ccccc3NC2=O)CC1` (centres unmarked) [Compound 190], the IC50 in assay [5] is more than 5000 nM. In assay [6], this compound registered an inhibition constant Ki of 1000 to 5000 nM.

On to `CN(C)[C@H]1CCN(c2ccccc2C2SC(CC(=O)N3CCC(N4CCc5ccccc5NC4=O)CC3)C(=O)N2CCC(C)(C)C)C1` (some centres unmarked) [Compound 407], for which, in assay [5], the IC50 is less than 1000 nM. Further, the Ki in assay [6] was less than 1000 nM.

In the case of `CC(C)N1CCN(c2cccc(Cl)c2[C@H]2S[C@H](CC(=O)N3CCC(N4CCc5ccccc5NC4=O)CC3)C(=O)N2CCC(C)(C)C)CC1` [Compound 434], in assay [5], the IC50 is less than 1000 nM. In assay [6], this compound displayed an inhibitory constant (Ki) of less than 1000 nM.

For `CCOCCCN1C(=O)C(CC(=O)N2CCC(N3Cc4ccccc4NC3=O)CC2)SC1c1ccccc1` (centres unmarked) [Compound 159], the concentration for half-maximal inhibition (IC50) in assay [5] was less than 1000 nM. Further, the Ki in assay [6] is less than 1000 nM.

Consider `CC(C)(C)CCN1C(=O)[C@H](CC(=O)N2CCC(N3CCc4ccccc4NC3=O)CC2)SC1c1cccc(F)c1N1CCC(N)C1` (some centres unmarked) [Compound 471], for which the IC50 in assay [5] was less than 1000 nM. The compound also had an inhibitory constant (Ki) in assay [6] of less than 1000 nM.

`CC(C)CN1C(=O)[C@H](CC(=O)N2CCC(N3CCc4ccccc4NC3=O)CC2)SC1c1cccc(F)c1N1CCN(C(C)(C)C)CC1` (some centres unmarked) [Compound 494]: in assay [5], the IC50 is less than 1000 nM. In assay [6], this compound returned a Ki of less than 1000 nM.

`CC(C)(C)CCN1C(=O)C(CC(=O)N2CCC(n3c(=O)[nH]c4ccccc43)CC2)S[C@H]1c1ccccc1N1CCC(O)CC1` (some centres unmarked) [Compound 296]: the IC50 in assay [5] was less than 1000 nM. The compound also had a Ki in assay [6] of less than 1000 nM.

The values are drawn from patent publication US8163737B2 (Vertex Pharmaceuticals Incorporated, priority 2006, dated 2012).
